Reference: US20250206761A1, “HALOINDOLE MACROCYCLIC COMPOUNDS FOR THE TREATMENT OF CANCER” (Hoffmann-La Roche Inc., priority 2022, published 2025)

Tests used:
[1] = tested on: AGS (ATCC-CRL-1739) cells; test: Cell viability assay, G12D (AGS); format: cell-based, human; details: Homo sapiens, KRAS cell viability, 72 hrs, Cell Counting Kit-8
Outline: (§1)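 Cells were seeded at 5,000 cells/well (NCI-H358) or 2,000 cells/well (AGS, SW620), incubated overnight, then treated with compounds in 0.5% DMSO final for 72 hrs. CCK-8 was added and OD450 minus OD650 read after 2 hrs; IC50 came from a 4-parameter sigmoidal fit.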

[2] = GSH reaction rates (inherent GSH reactivity); format: in vitro ADME; design: half-life: dose or concentration left out as unconfirmed; details: for half-life: buffer, pH 7.4
Method: For inherent GSH reactivity determination, compounds […] were incubated at 37° C. with and without 5 mM GSH for 0, 0.5, 1, 2, 4 and 6 h in 100 mM potassium phosphate buffer at pH 7.4. At the end of the designated time points, samples were quenched with acetonitrile containing 10 mM N-ethylmaleimide and an internal standard. Quenched samples were centrifuged, and supernatants were analyzed by LC-MS/MS for compound quantification.

[3] = tested on: phosphorylation of ERK, KRAS G12C in NCJ-H358 cells; test: pERK inhibition assay, KRAS G12C; format: cell-based, human; details: Homo sapiens, 4 hours
Outline: (§2)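 In-cell ELISA of phospho-ERK (HRP/TMB, OD450) after formaldehyde fixation and methanol permeabilization; IC50 by 4-parameter sigmoidal fit. Compound incubation 4 h, 0.5% DMSO final, on overnight-attached NCJ-H358, AGS or SW620 cells seeded at 30,000, 20,000 and 30,000 per well.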

[4] = target: KRAS G12D binding to BRAF (Homo sapiens (Human), UniProt P01116+P62937, G12D); test: KRAS-BRAF with CYPA (500 nM) interaction assay (TR-FRET), G12D; format: biochemical
SW620 (ATCC-CCL-227) = test: Cell viability assay, G12V (SW620); format: cell-based, human; details: Homo sapiens, SW-620; KRAS cell viability, SW620, 72 hrs, Cell Counting Kit-8
Outline: as §1

KRAS G12C-BRAF complex = KRAS G12C-BRAF complex (Homo sapiens (Human), UniProt P01116+P62937, G12C); test: KRAS-BRAF with CYPA (500 nM) interaction assay (TR-FRET), G12C; format: biochemical
[5] = tested on: phosphorylation of ERK, KRAS G12D in AGS cells; test: pERK inhibition assay, KRAS G12D; format: cell-based, human; details: Homo sapiens, 4 hours
Outline: as §2

Sequence of KRAS G12C-BRAF complex (P01116-2 other isoform, or with tags, fused parts or gaps G12C): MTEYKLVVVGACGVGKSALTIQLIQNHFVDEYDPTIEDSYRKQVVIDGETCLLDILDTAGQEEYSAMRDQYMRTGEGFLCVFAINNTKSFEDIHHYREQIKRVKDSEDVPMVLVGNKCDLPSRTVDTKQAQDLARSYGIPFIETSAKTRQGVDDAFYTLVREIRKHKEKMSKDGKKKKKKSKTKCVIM
Sequence of KRAS G12C-BRAF complex (P62937 whole entry): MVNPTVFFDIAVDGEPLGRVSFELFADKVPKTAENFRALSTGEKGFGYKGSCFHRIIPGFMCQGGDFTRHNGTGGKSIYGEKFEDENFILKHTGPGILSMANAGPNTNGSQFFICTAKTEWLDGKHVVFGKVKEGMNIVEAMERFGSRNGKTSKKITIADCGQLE
Sequence of KRAS G12D binding to BRAF (P01116-2 other isoform, or with tags, fused parts or gaps G12D): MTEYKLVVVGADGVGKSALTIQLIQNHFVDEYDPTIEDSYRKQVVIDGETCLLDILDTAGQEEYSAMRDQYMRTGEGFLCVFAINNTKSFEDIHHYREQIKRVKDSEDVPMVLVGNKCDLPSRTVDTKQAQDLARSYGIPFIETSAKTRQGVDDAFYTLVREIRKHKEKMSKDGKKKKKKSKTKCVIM
Sequence of KRAS G12D binding to BRAF (P62937 whole entry): as the sequence (P62937 whole entry) above

conjugation with GSH [2] | half-life [2] [h] | SMILES | IC50 [1] [nM] | T1/2(hour) in GSH ([2]; 5 mM GSH, 37° C., 100 mM potassium phosphate buffer pH 7.4, up to 6 h) | Remaining at 6 hr in GSH (%) ([2]; 5 mM GSH, 37° C., pH 7.4, 6 hr) | IC50 [3] [nM] | IC50 [4] [nM] | IC50 (SW620 (ATCC-CCL-227)) [nM] | IC50 (KRAS G12C-BRAF complex) [nM] | IC50 [5] [nM]
– | – | CCn1c(-c2cc(N3CCN(CC(F)(F)F)CC3)cnc2[C@H](C)OC)c2c3cc(c(F)cc31)-c1csc(n1)C[C@H](NC(=O)[C@H](C(C)C)N1CCC3(CN(C(=O)[C@H](F)Cl)C3)C1=O)C(=O)N1CCC[C@H](N1)C(=O)OCC(C)(C)C2 (atropisomer, axis not shown; (M)) [Example 37, (2S)-2-[2-[(2R)-2-chloro-2-fluoro-acetyl]-5-oxo-2,6-diazaspiro[3.4]octan-6-yl]-N-[(7S,13S)-21-ethyl-24-fluoro-(20M)-20-[2-[(1S)-1-methoxyethyl]-5-[4-(2,2,2-trifluoroethyl)piperazin-1-yl]-3-pyridyl]-17,17-dimethyl-8,14-dioxo-15-oxa-4-thia-9,21,27,28-tetrazapentacyclo[17.5.2.1^2,5.1^9,13.0^22,26]octacosa-1(25),2,5(28),19,22(26),23-hexaen-7-yl]-3-methyl-butanamide] | 159 | stable (If % depletion after 6 hour incubation is less than 20%, compounds were reported as stable) | 100 | 3 | 964 | 114 | 39 | –
formed conjugation with GSH | 8.9 | CC(C)[C@@H](C(=O)N[C@H]1Cc2cc(O)cc(c2)-c2ccc3c(C(C)(C)C#N)cn(c3c2)CC(C)(C)COC(=O)[C@@H]2CCCN(N2)C1=O)N1CCC2(CN(C(=O)CCl)C2)C1=O [RM44, reference compound] | 6230 | – | – | 1900 | > 10000 | > 10000 | 17 | > 10000
formed conjugation with GSH | 4.3 | CC(C)[C@@H](C(=O)N[C@H]1Cc2cc(O)cc(c2)-c2ccc3c(C(C)(C)C#N)cn(c3c2)CC(C)(C)COC(=O)[C@@H]2CCCN(N2)C1=O)N1CCCC2(CCN(C(=O)CCl)C2)C1=O (stereo partly shown) [RM351, reference compound] | 2100 | – | – | 356 | > 10000 | – | > 10000 | > 10000
– | – | CCn1c(-c2cc(N3CCOCC3)cnc2[C@H](C)OC)c2c3cc(c(F)cc31)-c1csc(n1)C[C@H](NC(=O)[C@H](C(C)C)N1CC[C@@]3(CCN(C(=O)[C@H](F)Cl)C3)C1=O)C(=O)N1CCC[C@H](N1)C(=O)OCC(C)(C)C2 (atropisomer, axis not shown; (M)) [Example 53, (2S)-2-[(5R)-7-[(2R)-2-chloro-2-fluoro-acetyl]-1-oxo-2,7-diazaspiro[4.4]nonan-2-yl]-N-[(7S,13S)-21-ethyl-24-fluoro-(20M)-20-[2-[(1S)-1-methoxyethyl]-5-morpholino-3-pyridyl]-17,17-dimethyl-8,14-dioxo-15-oxa-4-thia-9,21,27,28-tetrazapentacyclo[17.5.2.1^2,5.1^9,13.0^22,26]octacosa-1(25),2,5(28),19,22(26),23-hexaen-7-yl]-3-methyl-butanamide] | 1320 | – | – | 3 | > 10000 | 932 | 56 | 46
– | – | CO[C@@H](C)c1ncc(N2CCN(C)CC2)cc1-c1c2c3cc(c(F)cc3n1CC(F)(F)F)-c1csc(n1)C[C@H](NC(=O)[C@H](C(C)C)N1CCC[C@]3(CCN(C(=O)[C@H](F)Cl)C3)C1=O)C(=O)N1CCC[C@H](N1)C(=O)OCC(C)(C)C2 (single isomer, unassigned) [Example 18] | 3700 | – | – | 3 | 1660 | 19 | 71 | 26
– | – | CO[C@@H](C)c1ncc(N2CCN(C)CC2)cc1-c1c2c3cc(c(F)cc3n1CC(F)(F)F)-c1csc(n1)C[C@H](NC(=O)[C@H](C(C)C)N(C)C(=O)C1(F)CCN(C(=O)[C@H](F)Cl)CC1)C(=O)N1CCC[C@H](N1)C(=O)OCC(C)(C)C2 (atropisomer, axis not shown; (M)) [Example 10, 1-[(2R)-2-chloro-2-fluoro-acetyl]-4-fluoro-N-[(1S)-1-[[(7S,13S)-24-fluoro-(20M)-20-[2-[(1S)-1-methoxyethyl]-5-(4-methylpiperazin-1-yl)-3-pyridyl]-17,17-dimethyl-8,14-dioxo-21-(2,2,2-trifluoroethyl)-15-oxa-4-thia-9,21,27,28-tetrazapentacyclo[17.5.2.1^2,5.1^9,13.0^22,26]octacosa-1(25),2,5(28),19,22(26),23-hexaen-7-yl]carbamoyl]-2-methyl-propyl]-N-methyl-piperidine-4-carboxamide] | 105 | – | – | < 1 | 964 | 8 | 20 | 16
– | – | CCn1c(-c2cc(N3CCOCC3)cnc2[C@H](C)OC)c2c3cc(c(F)cc31)-c1csc(n1)C[C@H](NC(=O)[C@H](C(C)C)N1CCC3(CN(C(=O)[C@H](F)Cl)C3)C1=O)C(=O)N1CCC[C@H](N1)C(=O)OCC(C)(C)C2 (atropisomer, axis not shown; (M)) [Example 52, (2S)-2-[2-[(2R)-2-chloro-2-fluoro-acetyl]-5-oxo-2,6-diazaspiro[3.4]octan-6-yl]-N-[(7S,13S)-21-ethyl-24-fluoro-(20M)-20-[2-[(1S)-1-methoxyethyl]-5-morpholino-3-pyridyl]-17,17-dimethyl-8,14-dioxo-15-oxa-4-thia-9,21,27,28-tetrazapentacyclo[17.5.2.1^2,5.1^9,13.0^22,26]octacosa-1(25),2,5(28),19,22(26),23-hexaen-7-yl]-3-methyl-butanamide] | 4720 | – | – | 4 | 2060 | 196 | 115 | 103
